Data published in ChEMBL document CHEMBL1201862, “PubChem BioAssay data set” (2004).
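Method: 48-hour compound exposure of cells in 96-well plates, five concentrations, linear interpolation of endpoints. The concentration for 50% growth inhibition is given as GI50.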 Calls of active or inactive are those of the source. Cut-off read from the data, not from the text of the source: active = GI50 up to about 1.1 µM and inactive = higher.

Tests used:
Assay in all cases: DTP human tumour cell line panel, 48 h
HCT-116 = test system: HCT-116
786-0 = test system: 786-0
HOP-62 = test system: HOP-62
SN12C = test system: SN12C
BT-549 = test system: BT-549
Malme-3M = test system: Malme-3M
NCI-H23 = test system: NCI-H23
SNB-75 = test system: SNB-75
SF-539 = test system: SF-539
M14 = test system: M14
SW-620 = test system: SW-620
A498 = test system: A498
COLO 205 = test system: COLO 205
NCI-H522 = test system: NCI-H522
NCI-H226 = test system: NCI-H226
SK-MEL-28 = test system: SK-MEL-28
HT-29 = test system: HT-29
MDA-N = test system: MDA-N
Hs-578T = test system: Hs-578T

Measured: GI50

COc1cccc2[nH]c(-c3ccccn3)nc12
inactive: HCT-116 > 100 µM | 786-0 > 100 µM | HOP-62 74 µM | SN12C > 100 µM | BT-549 > 100 µM | Malme-3M > 100 µM | NCI-H23 > 100 µM | SNB-75 > 100 µM | SF-539 > 100 µM | M14 > 100 µM | SW-620 > 100 µM | A498 > 100 µM | COLO 205 > 100 µM | NCI-H522 48.9 µM | NCI-H226 > 100 µM | SK-MEL-28 > 100 µM | HT-29 > 100 µM | MDA-N > 100 µM | Hs-578T 68.9 µM

COc1cc2nc(-c3ccccc3)cc(O)c2cc1OC
inactive: HCT-116 6.1 µM | 786-0 27.8 µM | HOP-62 19 µM | SN12C 31.4 µM | BT-549 > 100 µM | Malme-3M > 50.6 µM | NCI-H23 21.8 µM | SNB-75 12.1 µM | SF-539 14.3 µM | M14 9.02 µM | SW-620 10.8 µM | A498 40.6 µM | COLO 205 4.2 µM | NCI-H522 5.83 µM | NCI-H226 14.4 µM | SK-MEL-28 36.2 µM | HT-29 9.84 µM | MDA-N 2.18 µM | Hs-578T 25.1 µM

Cc1ccc(NC(=O)c2cccc(OP(=O)(Nc3ccc(C)cc3)Nc3ccc(C)cc3)c2)cc1
inactive: HCT-116 4.18 µM | 786-0 19.9 µM | HOP-62 28.7 µM | SN12C 16.3 µM | BT-549 22.2 µM | Malme-3M 4.83 µM | NCI-H23 10.9 µM | SNB-75 4.14 µM | SF-539 23.3 µM | M14 3.21 µM | SW-620 8.18 µM | A498 18.1 µM | COLO 205 2.32 µM | NCI-H522 2.78 µM | NCI-H226 8.04 µM | SK-MEL-28 29.9 µM | HT-29 3.5 µM | MDA-N 3.78 µM | Hs-578T 6.3 µM

CCCCC(=O)OC[n+]1ccc(-c2c(COC(=O)NC(C)C)c(COC(=O)NC(C)C)c3n2CCC3)cc1
inactive: HCT-116 > 94.8 µM | 786-0 39.4 µM | HOP-62 > 59.6 µM | SN12C 40.3 µM | BT-549 > 100 µM | Malme-3M > 100 µM | NCI-H23 53.6 µM | SNB-75 60.3 µM | SF-539 40.4 µM | M14 > 77.4 µM | SW-620 > 76.2 µM | A498 23.9 µM | COLO 205 > 80.9 µM | NCI-H522 30.5 µM | NCI-H226 > 100 µM | SK-MEL-28 > 100 µM | HT-29 > 76 µM | MDA-N > 100 µM | Hs-578T > 100 µM

COC(OC)(c1ccccc1)C(I)I
inactive: HCT-116 4.91 µM | 786-0 8.36 µM | HOP-62 28.1 µM | SN12C 20.1 µM | BT-549 11 µM | Malme-3M 3.15 µM | NCI-H23 19.2 µM | SNB-75 13.1 µM | SF-539 12.7 µM | M14 5.37 µM | SW-620 2.92 µM | A498 > 10 µM | COLO 205 8.69 µM | NCI-H522 2.5 µM | NCI-H226 20.8 µM | SK-MEL-28 16.1 µM | HT-29 15 µM | MDA-N 7.96 µM | Hs-578T 20.1 µM

N=C(N)N/N=C/c1nc2sccn2c1[N+](=O)[O-]
inactive: HCT-116 22.4 µM | 786-0 43 µM | HOP-62 37.8 µM | SN12C 37.5 µM | BT-549 39.9 µM | Malme-3M 13.3 µM | NCI-H23 18.1 µM | SNB-75 11.3 µM | SF-539 36.8 µM | M14 22.6 µM | SW-620 29.4 µM | A498 56.1 µM | COLO 205 16.2 µM | NCI-H522 21.6 µM | NCI-H226 81.1 µM | SK-MEL-28 > 100 µM | HT-29 26.2 µM | MDA-N 19.6 µM | Hs-578T 24.7 µM

S=C(N/N=C\C=N/NC(=S)N1CCCCCC1)N1CCCCCC1
inactive: HCT-116 7.73 µM | 786-0 14.3 µM | HOP-62 9.12 µM | SN12C > 100 µM | BT-549 > 100 µM | Malme-3M 22.2 µM | NCI-H23 > 31.1 µM | SNB-75 22.5 µM | SF-539 64.9 µM | M14 18.1 µM | SW-620 6.78 µM | A498 57.3 µM | COLO 205 15.9 µM | NCI-H522 8.07 µM | NCI-H226 28.6 µM | SK-MEL-28 > 100 µM | HT-29 7.28 µM | MDA-N > 68.1 µM | Hs-578T 32.8 µM

N=C1CCCC1C(=S)SCCC(N)=O (configuration not stated)
inactive: HCT-116 > 100 µM | 786-0 > 100 µM | HOP-62 > 100 µM | SN12C > 100 µM | BT-549 > 100 µM | Malme-3M > 100 µM | NCI-H23 > 100 µM | SNB-75 61.4 µM | SF-539 > 100 µM | M14 > 100 µM | SW-620 > 100 µM | A498 > 100 µM | COLO 205 > 100 µM | NCI-H522 > 100 µM | NCI-H226 > 100 µM | SK-MEL-28 > 100 µM | HT-29 > 100 µM | MDA-N > 100 µM | Hs-578T > 100 µM
